Data as given in ChEMBL document CHEMBL5321294, “Evolution of Slow-Binding Inhibitors Targeting Histone Deacetylase Isoforms” (J Med Chem, 2023).
Blank lines part the entries; values can stand above or below the compound they belong to. Non-standard residues stand in square brackets, D forms with d. Residues, ends and D or L forms follow the SMILES beside them. *: point of attachment. Asu = N[C@@H](CCCCCC(=O)O)C(=O)O; NHOH = ON*

Key:
Histone deacetylase 3 [1] = target: T1, Histone deacetylase 3 (Homo sapiens, UniProt O15379); assay: Binding affinity to HDAC3 (unknown origin) assessed as inhibition constant
T1 sequence (O15379 whole entry): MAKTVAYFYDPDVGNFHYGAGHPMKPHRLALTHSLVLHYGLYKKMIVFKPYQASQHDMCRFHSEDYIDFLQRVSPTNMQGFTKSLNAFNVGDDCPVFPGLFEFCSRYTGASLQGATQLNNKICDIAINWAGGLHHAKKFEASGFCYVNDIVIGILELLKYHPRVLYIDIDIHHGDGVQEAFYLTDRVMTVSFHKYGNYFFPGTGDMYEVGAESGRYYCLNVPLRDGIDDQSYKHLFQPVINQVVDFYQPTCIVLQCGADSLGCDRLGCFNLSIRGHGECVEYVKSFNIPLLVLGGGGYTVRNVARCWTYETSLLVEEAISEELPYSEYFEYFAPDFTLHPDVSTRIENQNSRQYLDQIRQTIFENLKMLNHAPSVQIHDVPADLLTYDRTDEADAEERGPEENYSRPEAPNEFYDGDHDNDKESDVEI

Histone deacetylase 1 [2] = target: T2, Histone deacetylase 1 (Homo sapiens, UniProt Q13547); assay: Binding affinity to HDAC1 (unknown origin) assessed as inhibition constant
T2 sequence (Q13547 whole entry): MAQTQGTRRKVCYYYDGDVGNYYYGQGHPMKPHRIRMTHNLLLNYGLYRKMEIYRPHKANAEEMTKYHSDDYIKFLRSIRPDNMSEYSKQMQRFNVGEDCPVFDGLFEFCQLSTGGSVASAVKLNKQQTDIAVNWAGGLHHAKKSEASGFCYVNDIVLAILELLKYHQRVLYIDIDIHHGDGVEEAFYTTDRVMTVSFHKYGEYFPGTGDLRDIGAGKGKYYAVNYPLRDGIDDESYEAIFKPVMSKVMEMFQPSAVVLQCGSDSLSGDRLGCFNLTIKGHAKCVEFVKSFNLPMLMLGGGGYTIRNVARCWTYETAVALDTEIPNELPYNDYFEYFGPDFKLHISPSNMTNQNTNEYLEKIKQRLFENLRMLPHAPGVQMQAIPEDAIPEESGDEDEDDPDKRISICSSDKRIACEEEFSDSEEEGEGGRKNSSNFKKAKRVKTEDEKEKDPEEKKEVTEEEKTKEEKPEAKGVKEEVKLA

Histone deacetylase 8 [3] = target: T3, Histone deacetylase 8 (Homo sapiens, UniProt Q9BY41); assay: Binding affinity to HDAC8 (unknown origin) assessed as inhibition constant
T3 sequence (Q9BY41 whole entry): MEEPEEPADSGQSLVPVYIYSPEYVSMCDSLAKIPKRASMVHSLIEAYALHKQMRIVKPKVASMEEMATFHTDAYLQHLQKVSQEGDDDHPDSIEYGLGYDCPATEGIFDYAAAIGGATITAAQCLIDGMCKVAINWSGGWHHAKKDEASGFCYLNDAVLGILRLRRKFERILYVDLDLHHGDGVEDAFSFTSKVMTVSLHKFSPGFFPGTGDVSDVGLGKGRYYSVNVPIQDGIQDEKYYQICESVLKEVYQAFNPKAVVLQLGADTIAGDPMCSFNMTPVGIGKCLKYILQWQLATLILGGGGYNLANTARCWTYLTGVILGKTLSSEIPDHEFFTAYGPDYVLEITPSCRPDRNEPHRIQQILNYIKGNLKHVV

Histone deacetylase 3 [4] = target: T1, Histone deacetylase 3; assay: Binding affinity to human HDAC3 assessed as residence time
Histone deacetylase 3 [5] = target: T1, Histone deacetylase 3; assay: Binding affinity to HDAC3 (unknown origin) assessed as binding constant(k2)
Histone deacetylase 8 [6] = target: T3, Histone deacetylase 8; assay: Binding affinity to HDAC8 (unknown origin) assessed as inhibition constant(ki,1)
Histone deacetylase 2 [7] = target: T4, Histone deacetylase 2 (Homo sapiens, UniProt Q92769); assay: Binding affinity to human HDAC2 assessed as residence time
T4 sequence (Q92769 whole entry): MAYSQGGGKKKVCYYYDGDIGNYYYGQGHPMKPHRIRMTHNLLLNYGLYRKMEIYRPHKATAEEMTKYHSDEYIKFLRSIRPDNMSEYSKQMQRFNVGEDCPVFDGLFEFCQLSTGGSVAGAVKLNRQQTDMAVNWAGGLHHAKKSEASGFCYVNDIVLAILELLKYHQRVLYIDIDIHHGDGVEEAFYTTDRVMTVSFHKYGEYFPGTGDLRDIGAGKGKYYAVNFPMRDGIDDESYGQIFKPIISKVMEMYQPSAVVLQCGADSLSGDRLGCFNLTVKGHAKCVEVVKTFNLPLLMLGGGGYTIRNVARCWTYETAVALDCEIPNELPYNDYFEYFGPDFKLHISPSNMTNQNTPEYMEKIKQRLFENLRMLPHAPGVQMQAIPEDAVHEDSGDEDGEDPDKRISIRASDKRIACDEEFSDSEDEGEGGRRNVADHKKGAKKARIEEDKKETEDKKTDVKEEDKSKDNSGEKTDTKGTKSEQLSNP

Histone deacetylase 3 [8] = target: T1, Histone deacetylase 3; assay: Binding affinity to HDAC3 (unknown origin) assessed as binding constant(k-2)
Histone deacetylase 1 [9] = target: T2, Histone deacetylase 1
in vivo = conditions: C57BL/6, mouse, brain, ip, 25 mg/kg
Histone deacetylase 3 [10] = target: T1, Histone deacetylase 3
Histone deacetylase 2 [11] = target: T4, Histone deacetylase 2; assay: Inhibition of HDAC2 (unknown origin) measured after 24 hrs by fluorescence based assay
Histone deacetylase 3 [12] = target: T1, Histone deacetylase 3; assay: Inhibition of HDAC3 (unknown origin) measured after 24 hrs by fluorescence based assay
Histone deacetylase 1 [13] = target: T2, Histone deacetylase 1; assay: Inhibition of HDAC1 (unknown origin) measured after 24 hrs by fluorescence based assay
Histone deacetylase 3 [14] = target: T1, Histone deacetylase 3; assay: Inhibition of HDAC3 (unknown origin) measured after 1 hrs by fluorescence based assay
Histone deacetylase 2 [15] = target: T4, Histone deacetylase 2; assay: Inhibition of HDAC2 (unknown origin) measured after 1 hrs by fluorescence based assay
Histone deacetylase 1 [16] = target: T2, Histone deacetylase 1; assay: Inhibition of HDAC1 (unknown origin) measured after 1 hrs by fluorescence based assay
Homo sapiens [17] = species on record: Homo sapiens; assay: Selectivity ratio of Ki for human HDAC3 using Acetyl-Lys(Ac)-AMC as substrate to Ki for HDAC1 using Acetyl-Lys(Ac)-AMC as substrate
Histone deacetylase 3 [18] = target: T1, Histone deacetylase 3; assay: Binding affinity to human HDAC3 using Acetyl-Lys(Ac)-AMC as substrate assessed as binding constant (k-1)
[19] = target: T5, Protein deacetylase HDAC6 (Homo sapiens) (UniProt Q9UBN7); assay: Binding affinity to N-terminal GST-tagged human full length HDAC6 expressed in baculovirus infected Sf9 cells using Fluor-de-Lys Green as substrate assessed as dissociation constant (koff)
T5 sequence (whole entry): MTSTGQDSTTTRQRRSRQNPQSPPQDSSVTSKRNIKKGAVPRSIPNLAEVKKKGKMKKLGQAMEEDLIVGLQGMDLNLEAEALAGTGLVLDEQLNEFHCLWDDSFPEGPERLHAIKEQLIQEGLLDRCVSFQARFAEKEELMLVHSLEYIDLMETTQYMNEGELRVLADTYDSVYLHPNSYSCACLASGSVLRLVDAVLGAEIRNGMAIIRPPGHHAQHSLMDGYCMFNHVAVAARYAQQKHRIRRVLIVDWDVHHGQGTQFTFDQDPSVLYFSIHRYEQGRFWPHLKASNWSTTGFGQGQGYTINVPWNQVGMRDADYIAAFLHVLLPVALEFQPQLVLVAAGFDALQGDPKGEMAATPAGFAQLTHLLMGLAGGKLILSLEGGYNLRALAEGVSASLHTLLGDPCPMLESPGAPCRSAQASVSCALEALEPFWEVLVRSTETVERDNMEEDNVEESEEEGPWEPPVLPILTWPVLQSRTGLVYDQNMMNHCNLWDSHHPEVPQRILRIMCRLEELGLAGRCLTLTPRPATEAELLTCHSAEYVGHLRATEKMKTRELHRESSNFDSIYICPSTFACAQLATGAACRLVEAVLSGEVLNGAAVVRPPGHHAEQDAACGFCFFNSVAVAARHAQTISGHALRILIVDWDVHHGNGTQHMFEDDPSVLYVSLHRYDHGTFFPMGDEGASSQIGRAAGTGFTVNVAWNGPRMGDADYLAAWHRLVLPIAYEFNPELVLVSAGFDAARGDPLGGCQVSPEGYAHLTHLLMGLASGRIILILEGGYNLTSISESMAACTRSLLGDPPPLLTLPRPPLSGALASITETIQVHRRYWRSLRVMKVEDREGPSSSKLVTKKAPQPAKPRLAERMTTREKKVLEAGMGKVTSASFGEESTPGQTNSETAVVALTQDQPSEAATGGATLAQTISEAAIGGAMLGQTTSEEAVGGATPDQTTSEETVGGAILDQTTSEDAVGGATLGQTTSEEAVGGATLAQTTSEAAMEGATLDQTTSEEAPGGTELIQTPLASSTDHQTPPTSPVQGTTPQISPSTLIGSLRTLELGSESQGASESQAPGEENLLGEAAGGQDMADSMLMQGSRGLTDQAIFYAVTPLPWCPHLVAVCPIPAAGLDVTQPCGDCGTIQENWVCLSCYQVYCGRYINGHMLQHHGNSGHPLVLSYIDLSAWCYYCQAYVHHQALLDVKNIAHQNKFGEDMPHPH

[20] = target: T5, Protein deacetylase HDAC6 (Homo sapiens); assay: Binding affinity to N-terminal GST-tagged human full length HDAC6 expressed in baculovirus infected Sf9 cells using Fluor-de-Lys Green as substrate assessed as residence time by jump dilution assay
[21] = target: T5, Protein deacetylase HDAC6 (Homo sapiens); assay: Binding affinity to N-terminal GST-tagged human full length HDAC6 expressed in baculovirus infected Sf9 cells using Fluor-de-Lys Green as substrate assessed as residence time
[22] = target: T6, Protein deacetylase HDAC6 (Homo sapiens, UniProt Q9UBN7); assay: Binding affinity to N-terminal GST-tagged human full length HDAC6 expressed in baculovirus infected Sf9 cells using Fluor-de-Lys Green as substrate assessed as inhibition constant
T6 sequence (Q9UBN7 whole entry): T5 sequence (whole entry)

[23] = target: T5, Protein deacetylase HDAC6 (Homo sapiens); assay: Binding affinity to N-terminal GST-tagged human full length HDAC6 expressed in baculovirus infected Sf9 cells using Fluor-de-Lys Green as substrate assessed as dissociation constant (koff) by jump dilution assay
[24] = target: T5, Protein deacetylase HDAC6 (Homo sapiens); assay: Binding affinity to N-terminal GST-tagged human full length HDAC6 expressed in baculovirus infected Sf9 cells using Fluor-de-Lys Green as substrate assessed as association constant (kon)
[25] = target: T6, Protein deacetylase HDAC6; assay: Inhibition of N-terminal GST-tagged human full length HDAC6 expressed in baculovirus infected Sf9 cells using Fluor-de-Lys Green as substrate
Histone deacetylase 3 [26] = target: T1, Histone deacetylase 3; assay: Binding affinity to HDAC3 (unknown origin) assessed as inhibition constant(ki,1)
[27] = target: T5, Protein deacetylase HDAC6 (Homo sapiens); assay: Binding affinity to recombinant human HDAC6 using Ac-Leu-Gly-Lys(Ac)-AMC as substrate measured after 60 mins assessed as binding constant (k-2) by fluorescence based assay
[28] = target: T5, Protein deacetylase HDAC6 (Homo sapiens); assay: Binding affinity to recombinant human HDAC6 using Ac-Leu-Gly-Lys(Ac)-AMC as substrate measured after 60 mins assessed as binding constant (k2) by fluorescence based assay
[29] = target: T5, Protein deacetylase HDAC6 (Homo sapiens); assay: Binding affinity to recombinant human HDAC6 using Ac-Leu-Gly-Lys(Ac)-AMC as substrate assessed as residence time
Histone deacetylase 3 [30] = target: T1, Histone deacetylase 3; assay: Binding affinity to HDAC3 (unknown origin) assessed as residence time
[31] = target: T6, Protein deacetylase HDAC6; assay: Binding affinity to recombinant human HDAC6 using Ac-Leu-Gly-Lys(Ac)-AMC as substrate measured after 60 mins assessed as inhibition constant (ki,1) by fluorescence based assay
[32] = target: T6, Protein deacetylase HDAC6; assay: Binding affinity to recombinant human HDAC6 using Ac-Leu-Gly-Lys(Ac)-AMC as substrate measured after 60 mins assessed as inhibition constant by fluorescence based assay
Homo sapiens [33] = species on record: Homo sapiens; assay: Selectivity index, ratio of IC50 for Inhibition of human HDAC3 to IC50 for Inhibition of human HDAC1
Homo sapiens [34] = species on record: Homo sapiens; assay: Selectivity index, ratio of IC50 for Inhibition of human HDAC3 to Inhibition of human IC50 for HDAC2
Histone deacetylase 3 [35] = target: T1, Histone deacetylase 3; assay: Binding affinity to human HDAC3 assessed as dissociation rate constant (Koff)
Histone deacetylase 3 [36] = target: T1, Histone deacetylase 3; assay: Binding affinity to human HDAC3 assessed as half life
Histone deacetylase 3 [37] = target: T1, Histone deacetylase 3; assay: Binding affinity to human HDAC3 assessed as binding rate constant (Kon)
Histone deacetylase 2 [38] = target: T4, Histone deacetylase 2; assay: Binding affinity to human HDAC2 assessed as half life
Histone deacetylase 1 [39] = target: T2, Histone deacetylase 1; assay: Binding affinity to human HDAC1 assessed as half life

Ki (Histone deacetylase 3 [1]): 600 nM | Ki (Histone deacetylase 1 [2]): 400 nM
Structure (SMILES): CCC(=O)CCCCC[C@@H]1NC(=O)[C@H]2CCCCN2C(=O)[C@H]([C@@H](C)CC)NC(=O)[C@H](Cc2c[nH]c3ccccc23)NC1=O

Ki (Histone deacetylase 8 [3]): ~33 nM | TIME (Histone deacetylase 3 [4]): 3.33 h | K (Histone deacetylase 3 [5]): 0.24 min⁻¹ | Ki (Histone deacetylase 8 [6]): 7.3 µM | TIME (Histone deacetylase 2 [7]): 2.08 h | K (Histone deacetylase 3 [8]): 5 10^-3/min
Structure (SMILES): O=C(CCCCCCC(=O)C(F)(F)F)Nc1ccccc1

T1/2 (Histone deacetylase 1 [9]): < 4 min | half-life (in vivo): 26.4 min | T1/2 (Histone deacetylase 3 [10]): < 4 min
Structure (SMILES): O=C(CCCCCCC(=O)Nc1ccccc1)NO [VORINOSTAT]

Ki (Histone deacetylase 3 [1]): 2500 nM | Ratio Ki (Homo sapiens [17]): 350 | Ki (Histone deacetylase 1 [2]): 7 nM | K (Histone deacetylase 3 [18]): 0.002 min⁻¹
Structure (SMILES): Nc1ccc(-c2ccccc2)cc1NC(=O)CCCCCC(=O)Nc1ccccc1

Ki (Histone deacetylase 3 [26]): 1.4 nM | K [27]: 0.006 min⁻¹ | K [28]: 0.148 min⁻¹ | TIME [29]: 2.92 h | Ki (Histone deacetylase 3 [1]): 0.2 nM | TIME (Histone deacetylase 3 [30]): 4.17 h | Ki [31]: 34 nM | K (Histone deacetylase 3 [5]): 0.26 min⁻¹ | Ki [32]: ~1.2 nM | K (Histone deacetylase 3 [8]): 0.004 min⁻¹
Structure (SMILES): O=C(CCCCC[C@@H]1NC(=O)[C@H]2CCCN2C(=O)[C@H](Cc2ccccc2)NC(=O)[C@H](Cc2ccccc2)NC1=O)NO (cyclo([Asu](NHOH)FF[dP]))

More lines, now with the values behind:

Structure (SMILES): NC/C(=C\C(=O)c1ccccc1)c1ccccc1
IC50 (Histone deacetylase 2 [11]): 26.4 µM | IC50 (Histone deacetylase 3 [12]): > 50 µM | IC50 (Histone deacetylase 1 [13]): 8.65 µM | IC50 (Histone deacetylase 3 [14]): > 50 µM | IC50 (Histone deacetylase 2 [15]): 19.6 µM | IC50 (Histone deacetylase 1 [16]): 5.96 µM

Structure (SMILES): O=C(/C=C(\CO)c1ccccc1)c1ccccc1
IC50 (Histone deacetylase 3 [12]): ~50 µM | IC50 (Histone deacetylase 3 [14]): ~50 µM | IC50 (Histone deacetylase 2 [15]): 9.19 µM | IC50 (Histone deacetylase 1 [16]): 3.68 µM

Structure (SMILES): FC(F)c1nnc(-c2ccc(Cn3cc(-c4ccc(NC5N=CCN5)cc4)nn3)cc2)o1 (stereo unspecified)
K [19]: 4.6 10^-3/min | TIME [20]: 5.1 h | TIME [21]: 3.6 h | Ki [22]: 4.8 nM | K [23]: 3.3 10^-3/min | K [24]: 9.6 10^5/min/M | IC50 [25]: 7.7 nM

Structure (SMILES): CC(=O)Nc1ccc(C(=O)Nc2cc(-c3ccncc3)ccc2N)cc1
Ratio IC50 (Homo sapiens [33]): 1040 | Ratio IC50 (Homo sapiens [34]): 100 | TIME (Histone deacetylase 3 [4]): 10.4 h | K (Histone deacetylase 3 [35]): 0.002 min⁻¹ | T1/2 (Histone deacetylase 3 [36]): 11.5 h | K (Histone deacetylase 3 [37]): 0.001 min⁻¹ µM⁻¹ | TIME (Histone deacetylase 2 [7]): 41.7 h | T1/2 (Histone deacetylase 2 [38]): 30 h | T1/2 (Histone deacetylase 1 [39]): 7.17 h
